These are literature values, as cited in patent publication US20260198506A1, “Broad-Spectrum Organic Fungicide & Bactericide” (Ecolution.AG LLC, priority 2020, published 2026).

This data set deals with Gram-positive bacteria. To be noted: due to outer cell membrane impermeability of Gram-negatives.

Turning to `O=C(O)C1=C[C@@H](O)[C@@H](O)[C@H](O)C1` [shikimic acid], the antibacterial activity spectrum entry was “active only against Gram-positive bacteria”.
